One data set deals with U266-Luc MM cells. The data set can be described thus: U266-Luc in vivo model, tail vein injection. Conditions: 10 mg/kg/day subcutaneously, M-F. The protocol:
For the U266-Luc model, 1 × 10^6 cells (100 μl/PBS) were tail vein injected into 4- to 6-week-old female and male NSG mice. […] Endpoint was represented by hind limb paralysis or >20% weight loss. When sacrificed, tumors tibiae were harvested and fixed in 10% neutral buffered formalin for 24 hours. Bioluminescent signal is reported as the average of the sum of dorsal and ventral signal of the mice/group/timepoint. […]
28 Animal Experimentation: All animal experiments were performed with approval from the
29 Moffitt/University of South Florida Institutional Animal Care and Use Committee (Protocol
31 validation of MA9 efficacy (Figure 4), we initially included n = 10 mice per treatment group:
Randomization based on sex, weight,
33 and initial tumor burden was conducted, followed by treatment with either vehicle control (n = 6),
35 Tumor progression was tracked via bioluminescence: endpoint was paralysis or >20% weight loss.
36 Experiments were blinded. […]
38 For MA9 therapy efficacy, mice were treated with vehicle (n=10) or MA9 (10 mg/kg/day,
39 subcutaneously, M-F from day 20; n=10) (Supplementary Fig. 7E, F). Survival and toxicity
40 (weight, clinical signs) was monitored.
43 Luciferase-labeled MM cells 5TGM1-Luc (RRID: CVCL_VI66) and U266-Luc (RRID: […]
51 cells (all from the ATCC, USA) were routinely cultured at 37 °C in Roswell Park Memorial
53 FBS1) and penicillin/streptomycin (hereafter, complete medium).
54 Cells were not used for five days following PI-treatment. All myeloma cell lines were […]

In data set [1] the test system is CD138+ cells isolated from RRMM patient Pt1050. The data set can be described thus: Immunoblot densitometry, patient cells. The settings on record: Pt1050, 1μM; for ULK3 densitometry: CTRL 0.03; for ULK1 densitometry: CTRL 0.28. It counts as cell-based, human. The method, then:
(§1) Figure 7. MA9–060 treatment compromises the survival of patient NDMM and RRMM cells ex vivo. A. Representative viability (live cell imaging) response of CD138^+ cells from NDMM patient (Pt620) cultured and tested in autologous stromal microenvironment in EMMA’s ex vivo platform, exposed to three different concentrations of MA9–060 (0.7, 2.2, 6.7 μM). […] (not shown here – 20 μM). B. Ex vivo EMMA platform assay to quantify the chemosensitivity of primary CD138^+ MM cells plated in a collagen matrix with bone marrow stroma and patient plasma. […] C. […] H. Immunoblot showing levels of indicated proteins in CD138^+ cells isolated from RRMM patients (Pt971, Pt1050). Pt1050 CD138^+ cells were assessed for ULK3-mediated autophagy related proteins (ATGs), following treatment with MA9–060 (1μM at 2 and 6 hours).
157 5872S). Protein concentration was quantified by Thermo Scientific™ Pierce™ BCA™ Protein
30 μg protein was loaded to 10%-15% gel and ran at
159 100V for 2 hours. Later protein was transferred to PVDF membrane and blocked with 5% skimmed
160 milk in TBST (10 mM Tris/HCl pH8.0, 0.12M NaCl, 0.1% Tween 20) containing 5% BSA [8] for
163 at 4°C overnight. Membranes were washed 3 times,10 minutes with TBS. Then incubated with
164 appropriate secondary antibodies at 1:1000 ratio in skimmed milk or 2% BSA. The membranes
165 were washed again 3 times for 10 minutes with TBST. ECL reagents were added to the membrane
166 and blot was developed by LICOR Imaging Studio.
167 All immunoblotting assays were performed at least in three replicates and representative
168 images are shown. Commercially available antibodies and their dilutions are listed in
169 Supplementary Table 5. Immunoblotting images were acquired and quantified using LICOR
170 Image Studio Quant software. […]

Data set [2] relates to co-cultured stromal cells. Briefly: EMMA ex vivo platform, co-cultured stroma. It counts as cell-based. Conditions: highest concentration 20 μM. The method, then:
as §1
402 aspirate cells were enriched for CD138+ expression using Miltenyi (Bergisch Gladbach, Germany)
403 130-051-301 antibody-conjugated magnetic beads. MM cells (CD138+) were seeded in Corning
404 Cell BIND 384 well plates (Corning, NY) with collagen I and previously established human-
405 derived stroma, containing approximately 4000 MM cells and 1000 stromal cells. Each well was
406 filled with 80μL of RPMI 1640 media supplemented with fetal bovine serum (FBS, heat […]
422 images acquired for each well, we quantified non-destructively, and without the need to separate […]

Take `Cc1cnc(Nc2ccc(C3CCN(C)CC3)c(F)c2)nc1Nc1ccc(Cl)c(NS(=O)(=O)C(C)(C)C)c1` [MA9060]: in the data set with U266-Luc MM cells, the “MM-induced osteolysis (X-ray, histology)” value is given as “significantly protected against MM-induced osteolysis”; the “toxicity (weight loss, lethargy, ruffled hair)” value is on record as “did not show any sign of toxicity”; the “tumor growth (bioluminescence) vs control” value was “significantly impaired tumor growth”. Also, the “toxicity (weight loss, lethargy, ruffled hair)” value in the data set with U266-Luc MM cells (listed as MA9) is “no overt toxicities”. Also, in data set [1] (2h), the ULK3 densitometry is 0.03 and the ULK1 densitometry stood at 0.67. In data set [1] (6h), this molecule returned a ULK3 densitometry of 0.03 and a ULK1 densitometry of 0.35. Further, the “toxicity for co-cultured stromal cells” value in data set [2] is listed as “no toxicity”.

These data come from PMC12363935, “Unc-51 Like Kinase 3 (ULK3) is essential for autophagy and cell survival in multiple myeloma” (Research Square, 2025).
